Source: US12091411B2, “IRAK degraders and uses thereof” (Kymera Therapeutics, Inc., priority 2022, dated 2024)
Where two headings read alike, the source gives them in different places.

Biological target: T1, IRAK4 (Homo sapiens, UniProt Q9NWZ3)
T1 construct: Degradation of IRAK4 in OCI-LY10 was quantitatively measured using Meso Scale Discovery technology; endogenous in cells; host or cells: OCI-LY10
T1 sequence (Q9NWZ3 1-460): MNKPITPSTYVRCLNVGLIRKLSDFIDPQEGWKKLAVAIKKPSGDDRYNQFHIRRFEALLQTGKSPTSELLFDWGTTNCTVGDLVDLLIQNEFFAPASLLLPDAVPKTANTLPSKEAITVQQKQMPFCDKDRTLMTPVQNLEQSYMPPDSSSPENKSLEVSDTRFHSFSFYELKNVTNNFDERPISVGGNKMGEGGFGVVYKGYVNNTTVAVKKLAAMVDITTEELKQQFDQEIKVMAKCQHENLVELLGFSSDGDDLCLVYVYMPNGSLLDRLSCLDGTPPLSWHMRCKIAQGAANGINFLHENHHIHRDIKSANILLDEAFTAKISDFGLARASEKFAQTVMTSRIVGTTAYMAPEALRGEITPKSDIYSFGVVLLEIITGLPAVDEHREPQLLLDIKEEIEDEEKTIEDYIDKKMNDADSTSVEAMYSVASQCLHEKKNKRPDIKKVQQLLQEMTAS
Test: IRAK4 MSD Degradation in OCI-LY10
Format: cell-based
Settings: OCI-LY10 cells, MSD
Method in brief: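 OCI-LY10 cells exposed to 8-point 1:3 compound series (top 1 to 10 μM) for 4 to 24 h at 37 °C, 5% CO2. Lysate IRAK4 quantified by MSD sandwich immunoassay. DC50 from three-parameter logistic fit, binned A (<0.01 μM) to D (>0.2 μM or not tested).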

[1] = 4 hrs incubation, read-out: IRAK4 degradation in OCI-LY10 at 4 hrs: DC50
[2] = 24 hrs incubation, read-out: IRAK4 degradation in OCI-LY10 at 24 hrs: DC50

| SMILES | DC50 [1] | DC50 [2] |
| --- | --- | --- |
| Cn1c(=O)n(C2CCC(=O)NC2=O)c2cccc(C#CCO[C@H]3CCCN(C[C@H]4CC[C@H](n5cc(NC(=O)c6cnn7ccc(N8C[C@H]9C[C@@H]8CO9)nc67)c(C(F)F)n5)CC4)C3)c21 (some centres unmarked) [I-128] | 10 to 100 nM | > 200 nM |
| Cn1c(=O)n(C2CCC(=O)NC2=O)c2cccc(C#CCOC3CCN(C[C@H]4CC[C@H](n5cc(NC(=O)c6cccc(C(F)(F)F)n6)c(C(F)F)n5)CC4)CC3)c21 (some centres unmarked) [I-210] | > 200 nM | > 200 nM |
| CN(C[C@H]1CC[C@H](n2cc(NC(=O)c3cnn4ccc(N5CC(C)(C)C5)nc34)c(C(F)F)n2)CC1)C1CCN(c2cccc3c2n(C)c(=O)n3C2CCC(=O)NC2=O)CC1 (some centres unmarked) [I-275] | > 200 nM | < 10 nM |
| Cn1c(=O)n(C2CCC(=O)NC2=O)c2cccc(C#CCN3CCN(C[C@H]4CC[C@H](n5cc(NC(=O)c6cnn7ccc(C8COC8)nc67)c(C(F)F)n5)CC4)CC3)c21 (some centres unmarked) [I-351] | > 200 nM | > 200 nM |
| COc1cc2nn([C@H]3CC[C@H](CN4CCC5(CC4)CCN(c4ccc(Cl)c(N6CCC(=O)NC6=O)c4)CC5)CC3)cc2cc1NC(=O)c1cncc(C#N)c1 [I-254] | > 200 nM | > 200 nM |
| Cn1c(=O)n(C2CCC(=O)NC2=O)c2cccc(C#CCOC3CCN(C[C@H]4CC[C@H](n5cc(NC(=O)c6cnn7ccc(N8CC9(CCOC9)C8)nc67)c(C(F)F)n5)CC4)CC3)c21 (some centres unmarked) [I-327] | > 200 nM | < 10 nM |
| Cc1ccc(-c2nn([C@H]3CC[C@H](CN4CCN(CC#Cc5cccc6c5n(C)c(=O)n6C5CCC(=O)NC5=O)CC4)CC3)cc2NC(=O)c2cnn3cccnc23)cc1 (some centres unmarked) [I-118] | > 200 nM | 10 to 100 nM |
| Cn1c(=O)n(C2CCC(=O)NC2=O)c2cccc(C#CCO[C@@H]3CCN(C[C@H]4CC[C@H](n5cc(NC(=O)c6cnn7ccc(N8C[C@H]9C[C@@H]8CO9)nc67)c(C(F)F)n5)CC4)C[C@@H]3F)c21 (some centres unmarked) [I-22] | 10 to 100 nM | > 200 nM |
| CN(C[C@H]1CC[C@H](n2cc(NC(=O)c3cnn4ccc(N5CCC(F)(F)CC5)nc34)c(C(F)F)n2)CC1)C1CCN(c2cccc3c2n(C)c(=O)n3C2CCC(=O)NC2=O)CC1 (some centres unmarked) [I-273] | > 200 nM | < 10 nM |
| Cn1c(=O)n(C2CCC(=O)NC2=O)c2cccc(C#CCOC3CCN(C[C@H]4CC[C@H](n5cc(NC(=O)c6cnn7ccc(N8C[C@H]9C[C@@H]8CO9)nc67)c(C(F)F)n5)CC4)CC3(F)F)c21 (some centres unmarked) [I-18] | 10 to 100 nM | > 200 nM |
| O=C1CCN(c2cncc3c(C#CCO[C@@H]4CCN(C[C@H]5CC[C@H](n6cc(NC(=O)c7cnn8ccc(N9C[C@H]%10C[C@@H]9CO%10)nc78)c(C(F)F)n6)CC5)C[C@@H]4F)cccc23)C(=O)N1 [I-41] | < 10 nM | > 200 nM |
| CN(C[C@H]1CC[C@H](n2cc(NC(=O)c3cnn4cccnc34)c(C(F)F)n2)CC1)C1CCN(c2cccc3c2n(C)c(=O)n3C2CCC(=O)NC2=O)CC1(F)F (some centres unmarked) [I-376] | > 200 nM | > 200 nM |
| COc1cc2nn([C@H]3CC[C@H](CN4CC(c5c(OC)ccc6c5n(C)c(=O)n6C5CCC(=O)NC5=O)C4)CC3)cc2cc1NC(=O)c1cccc(C(C)(C)F)n1 (some centres unmarked) [I-132] | > 200 nM | > 200 nM |
| COc1nc([C@H]2CC[C@H](CN3CCC(OCC#Cc4cccc5c4n(C)c(=O)n5C4CCC(=O)NC4=O)CC3)CC2)ccc1NC(=O)c1cnn2ccc(N3C[C@H]4C[C@@H]3CO4)nc12 (some centres unmarked) [I-183] | > 200 nM | > 200 nM |
| C[C@H]1CN(C[C@H]2CC[C@H](n3cc(NC(=O)c4cnn5ccc(N6C[C@H]7C[C@@H]6CO7)nc45)c(C(F)F)n3)CC2)CC[C@@H]1OCC#Cc1ccc2c(N3CCC(=O)NC3=O)cncc2c1 [I-57] | 10 to 100 nM | > 200 nM |
| COc1cc2nn([C@H]3CC[C@H](CN4CCC5(CC4)CCN(c4cccc6c4n(C)c(=O)n6C4CCC(=O)NC4=O)CC5)CC3)cc2cc1NC(=O)c1cncc(S(=O)(=O)C(F)(F)F)c1 (some centres unmarked) [I-154] | > 200 nM | > 200 nM |

The next lines start with the values.

| DC50 [1] | DC50 [2] | SMILES |
| --- | --- | --- |
| > 200 nM | > 200 nM | Cn1c(=O)n(C2CCC(=O)NC2=O)c2cccc([C@H]3CCN(C[C@H]4CC[C@H](n5cc6cc(NC(=O)c7cccc(C(F)F)n7)c(C(C)(C)O)cc6n5)CC4)C[C@@H]3F)c21 (some centres unmarked) [I-654] |
| > 200 nM | > 200 nM | Cn1c(=O)n(C2CCC(=O)NC2=O)c2cccc(-c3ccc(N4CCc5cc(-n6cc(NC(=O)c7cnn8cccnc78)c(C(F)F)n6)ccc5C4)nc3)c21 (centres unmarked) [I-417] |
| > 200 nM | > 200 nM | Cn1c(=O)n(C2CCC(=O)NC2=O)c2cccc(C3CCN(C[C@H]4CC[C@H](n5cc6cc(NC(=O)c7cccc(C(F)(F)F)n7)c(C(F)F)cc6n5)CC4)CC3(F)F)c21 (some centres unmarked) [I-443] |
| > 200 nM | < 10 nM | Cn1c(=O)n(C2CCC(=O)NC2=O)c2cccc(C3CCN(C[C@H]4CC[C@H](n5cc6cc(NC(=O)c7cccc(C(F)F)n7)c(C(C)(C)O)cc6n5)CC4)CC3(F)F)c21 (some centres unmarked) [I-619] |
| > 200 nM | > 200 nM | Cn1c(=O)n(C2CCC(=O)NC2=O)c2cccc(OC3CCN([C@H]4CC[C@H](n5cc6cc(NC(=O)c7cccc(C(F)(F)F)n7)ccc6n5)CC4)CC3(F)F)c21 (some centres unmarked) [I-754] |
| > 200 nM | 10 to 100 nM | CN(C[C@H]1CC[C@H](n2cc(NC(=O)c3cnn4ccc(N5CCCCC5)nc34)c(C(F)F)n2)CC1)C1CCN(c2cccc3c2n(C)c(=O)n3C2CCC(=O)NC2=O)CC1(F)F (some centres unmarked) [I-515] |
| > 200 nM | 10 to 100 nM | Cn1c(=O)n(C2CCC(=O)NC2=O)c2ccc(F)c(N3CCN(C[C@H]4CC[C@H](n5cc6cc(NC(=O)c7cccc(C#N)n7)ccc6n5)CC4)CC3)c21 (some centres unmarked) [I-686] |
| > 200 nM | < 10 nM | Cn1c(=O)n(C2CCC(=O)NC2=O)c2cccc(N3CCN(C[C@H]4CC[C@H](n5cc6cc(NC(=O)c7cccc(C(F)F)n7)ncc6n5)CC4)CC3)c21 (some centres unmarked) [I-693] |
| > 200 nM | < 10 nM | Cn1c(=O)n(C2CCC(=O)NC2=O)c2cccc(N3CCN([C@H]4CCN(C[C@H]5CC[C@H](n6cc(NC(=O)c7cnn8ccc(N9C[C@H]%10C[C@@H]9CO%10)nc78)c(C(F)F)n6)CC5)CC4(F)F)CC3)c21 (some centres unmarked) [I-721] |
| > 200 nM | > 200 nM | Cn1c(=O)n(C2CCC(=O)NC2=O)c2cccc(N3CC(O[C@H]4CCN(C[C@H]5CC[C@H](n6cc(NC(=O)c7cnn8ccc(N9C[C@H]%10C[C@@H]9CO%10)nc78)c(C(F)F)n6)CC5)C[C@@H]4F)C3)c21 (some centres unmarked) [I-583] |
| 10 to 100 nM | > 200 nM | Cn1c(=O)n(C2CCC(=O)NC2=O)c2cccc(N3CC4(CCN(Cc5ccc(-n6cc(NC(=O)c7cnn8ccc(N9C[C@H]%10C[C@@H]9CO%10)nc78)c(C(F)F)n6)cc5)CC4)C3)c21 (some centres unmarked) [I-400] |
| > 200 nM | < 10 nM | Cn1c(=O)n(C2CCC(=O)NC2=O)c2cccc(C3CCN(C[C@H]4CC[C@H](n5cc6cc(NC(=O)c7cccc(C(F)(F)F)n7)c(C#N)cc6n5)CC4)CC3(F)F)c21 (some centres unmarked) [I-705] |
| > 200 nM | > 200 nM | Cn1c(=O)n(C2CCC(=O)NC2=O)c2cccc(C3CCN(C[C@H]4CC[C@H](n5cc6cc(NC(=O)c7cccc(C(F)(F)F)n7)ccc6n5)CC4)CC3(F)F)c21 (some centres unmarked) [I-445] |
| > 200 nM | < 10 nM | Cn1c(=O)n(C2CCC(=O)NC2=O)c2cccc(C3CCN(C[C@H]4CC[C@H](n5cc6cc(NC(=O)c7cccc(C(F)(F)F)n7)c(C#N)cc6n5)CC4)CC3F)c21 (some centres unmarked) [I-548] |
| > 200 nM | < 10 nM | Cn1c(=O)n(C2CCC(=O)NC2=O)c2cccc(C3CN(C4CCN(C[C@H]5CC[C@H](n6cc(NC(=O)c7cnn8ccc(N9C[C@H]%10C[C@@H]9CO%10)nc78)c(C(F)F)n6)CC5)CC4(F)F)C3)c21 (some centres unmarked) [I-682] |
